Measured values taken from patent US20240300940A1, “Phenothiazinyl Compounds and Uses” (Prosetta Biosciences, Inc., priority 2023, published 2024).

Columns and labels:
Hennes-20 cells = assay: Hennes-20 oncology screen; type: cell-based; conditions: 72 h, alamar Blue
Description: To screen compounds for oncology activity Hennes-20 cells were plated at low (500 cells/well) versus high (15,000 cells/well) densities and treated with DMSO (vehicle) or dose-titration of compounds. The rationale for this screen is that an intrinsically toxic compound should kill cells regardless of density, including in Hennes-20 cells. However, a compound that selectively triggers the arrest of proliferation will inhibit cell growth when plated at a low density will appear cytotoxic due to inhibition of cell growth when plated at a low density but will appear non-toxic to cells plated at a high density where the cells are approaching confluence and the readout detected by a cell viability assay is already close to the maximum.
To conduct the Hennes-20 screen, two 96 well plates were seeded with Hennes 20 cells in parallel where one was plated at a density of 500 cells/well and the other was plated at a density of 15,000 cells/well. 90 uL of minimum essential media was added to each well and plates were placed in a 37 degrees Celsius incubator for 24 hours. The next day, 10 ul of media containing dilutions of compound in DMSO were added to each plate. Six wells on each plate received 10 ul of media containing only DMSO. Each well was gently mixed 5 times with a 100 ul pipette. Plates were incubated at 37 degrees Celsius for 72 hours and then 10 uL of alamar Blue was added to each well. Wells were mixed 5 times then incubated at 37 degrees Celsius for […]. Plates were then read at 530/590.
The rationale for the screen is as follows: Hennes-20 cells lack endogenous apoptosis. Cells plated at low density will proliferate and approach confluence in 72 hrs. A drug that arrests proliferation may have its proliferation blocking effect masked by the triggering of endogenous apoptosis. However, in the Hennes line, lacking endogenous apoptosis, such an arrest is manifest as a dose-dependent maintenance at low cell density. Since the high-density cells are plated close to confluence, the difference between Alamar Blue cell survival readings after 72 hrs reflects the ability of the drug to block proliferation in the low density-plated cells. In the high density-plated cells any diminution of Alamar Blue readout vs vehicle control is due to intrinsic toxicity, not proliferation arrest, since cells were already at confluence. Thus, a compound that appears toxic (low Alamar Blue readings after 72 hrs) on the low-density plate, but which appears non-toxic (high Alamar Blue readings after 72 hrs) on the high-density plate, must be arresting proliferation, since intrinsic compound toxicity should be observed at both low and high cell densities, not selectively on the low-density plate.

E. coli ATCC25922 = assay: MIC assay, serial dilution; conditions: for MIC: Escherichia coli, ATCC25922, read-out: Anti-bacterial Activity (E. coli MIC (uM)), E. coli, Table 5

Row | SMILES | EC50 (Hennes-20 cells) [µM] | MIC (E. coli ATCC25922) [µM] | Anti-bacterial Activity (E. coli MIC (uM)) (E. coli ATCC25922; E. coli, Table 5) [µM]
1 | CC(C)(C)c1cc(N2CCC(C(=N)N)CC2)cc2[s+]c3cc(N4CCC(C(=N)N)CC4)ccc3nc12 [Compound 90] | 12.5 |  | 
2 | Fc1cc(N2CCCC2)cc2[s+]c3cc(N4CCCC4)cc(F)c3nc12 [Compound 44] |  | 6.3 | 
3 | CN(C)c1ccc2nc3ccc(N4CC5C(C4)C5(C)C)cc3[s+]c2c1 (stereo not shown) [Compound 31] | < 2.5 | 1.6 | 
4 | CCN(CC)c1cc(Br)c2nc3c(C(C)(C)C)cc(N(CC)CC)cc3[s+]c2c1 [Compound 63] | 2.5 |  | 
5 | Clc1cc(N2CCCC2)cc2[s+]c3cc(N4CCCC4)ccc3nc12 [Compound 86] | < 0.5 |  | 
6 | CCc1cc(N2CC3C(C2)C3(C)C)cc2[s+]c3cc(N4CC5C(C4)C5(C)C)cc(C)c3nc12 (stereo not shown) [Compound 12] | < 0.5 | 6.25 | 
7 | COc1cc2nc3ccc(N4CCCC4)cc3[s+]c2cc1N1CCCC1 [Compound 84] | < 12.5 |  | 
8 | CC(C)(C)c1cc(N2CCCC2)cc2[s+]c3cc(N4CCCC4)ccc3nc12 [Compound 65] | < 0.5 | 3.1 | 
9 | CC1(C)C2CN(c3cc(F)c4nc5c(F)cc(N6CC7C(C6)C7(C)C)cc5[s+]c4c3)CC21 (stereo not shown) [Compound 13] | 2.5 | 12.5 | 
10 | CC(C)(C)OC(=O)NC1CCN(c2ccc3nc4ccc(N5CC6C(C5)C6(C)C)cc4[s+]c3c2)C1 (stereo not shown) [Compound 32] |  | 6.25 | 
11 | c1cc2nc3ccc(N4CCC4)cc3[s+]c2cc1N1CCC1 [Compound 29] | < 2.5 | 25 | 
12 | CCCCc1cc(N2CCCC2)cc2[s+]c3cc(N4CCCC4)ccc3nc12 [Compound 70] | < 2.5 |  | 
13 | CN(C)c1ccc2nc3ccc(N4CCCC4)cc3[s+]c2c1 [Compound 35] | 0.5 | 12.5 | 
14 | FC1CCN(c2ccc3nc4ccc(N5CCC(F)C5)cc4[s+]c3c2)C1 (stereo not shown) [Compound 54] |  | 25 | 
15 | CC1(C)C2CN(c3ccc4nc5c(N6CC7C(C6)C7(C)C)cc(N6CC7C(C6)C7(C)C)cc5[s+]c4c3)CC21 (stereo not shown) [Compound 6] | 0.5 | 6.3 | 
16 | c1cc2nc3c(N4CCCC4)cc(N4CCCC4)cc3[s+]c2cc1N1CCCC1 [Compound 20] | 0.5 | 0.8 | 
17 | c1cc2nc3ccc(N4CCCCC4)cc3[s+]c2cc1N1CCCCC1 [Compound 62] | < 0.5 | 6.3 | 
18 | Fc1cc(N2CCCC2)cc2[s+]c3cc(N4CCCC4)ccc3nc12 [Compound 43] | 0.5 | 3.1 | 
19 | CC(C)(C)OC(=O)NC1CCN(c2ccc3nc4ccc(N5CCC(NC(=O)OC(C)(C)C)C5)cc4[s+]c3c2)C1 (stereo not shown) [Compound 51] |  | 6.3 | 
20 | Cc1cc(N2CCCC2)cc2[s+]c3c(F)c(N4CCCC4)cc(C)c3nc12 [Compound 21] | < 0.5 | 1.6 | 
21 | Cc1cc(N(C)C)cc2[s+]c3cc(N4CCCC4)cc(C)c3nc12 [Compound 33] |  | 1.6 | 

Row | SMILES | EC50 (Hennes-20 cells) [µM] | MIC (E. coli ATCC25922) [µM] | Anti-bacterial Activity (E. coli MIC (uM)) (E. coli ATCC25922; E. coli, Table 5) [µM]
22 | Cc1cc(N2CCCC2)cc2[s+]c3cc(N4CCCC4)ccc3nc12 [Compound 79] | < 12.5 |  | 
23 | Cc1cc(N2CC3C(C2)C3(C)C)cc2[s+]c3c(F)c(N4CC5C(C4)C5(C)C)cc(C)c3nc12 (stereo not shown) [Compound 14] | < 0.5 | 6.25 | 
24 | CC(C)(C)c1cc(N2CCCC2)cc2[s+]c3cc(N4CCC(C(=N)N)CC4)ccc3nc12 [Compound 89] | 12.5 |  | 
25 | CC(C)(C)OC(=O)NCc1cc2nc3ccc(N4CCCC4)cc3[s+]c2cc1N1CCCC1 [Compound 24] | < 2.5 | 1.6 | 
26 | CCc1cc(N(CC)CC)cc2[s+]c3cc(N(CC)CC)cc(CC)c3nc12 [Compound 80] | < 2.5 | 25 | 
27 | CC(C)c1cc(N2CCCC2)cc2[s+]c3cc(N4CCCC4)ccc3nc12 [Compound 41] | < 0.5 | 1.6 | 
28 | c1ccc(C2CCN(c3ccc4nc5ccc(N6CCC(c7ccccc7)C6)cc5[s+]c4c3)C2)cc1 (stereo not shown) [Compound 47] |  | 3.1 | 
29 | CCc1cc(N2CCCC2)cc2[s+]c3cc(N4CCOCC4)cc(CC)c3nc12 [Compound 72] | < 12.5 | 25 | 
30 | FC(F)(F)C1CCCN1c1ccc2nc3ccc(N4CCCC4C(F)(F)F)cc3[s+]c2c1 (stereo not shown) [Compound 48] |  | 3.1 | 
31 | CC(C)(C)OC(=O)NCc1cc2nc3ccc(N4CC5C(C4)C5(C)C)cc3[s+]c2cc1N1CC2C(C1)C2(C)C (stereo not shown) [Compound 8] | < 2.5 | 6.3 | 
32 | CC1(C)CCCN1c1ccc2nc3ccc(N4CCCC4(C)C)cc3[s+]c2c1 [Compound 52] |  | 12.5 | 
33 | Clc1cc(N2CCCC2)cc2[s+]c3cc(N4CCCC4)cc(Cl)c3nc12 [Compound 42] | < 12.5 | 1.6 | 
34 | COCCN(CCOC)c1ccc2nc3c(C(C)(C)C)cc(N(CCOC)CCOC)cc3[s+]c2c1 [Compound 67] | < 0.5 |  | 
35 | Cc1cc(N2CCCC2)cc2[s+]c3cc(N4CCCC4)cc(C)c3nc12 [Compound 40] |  | 1.6 | 
36 | CC1(C)C2CN(c3ccc4nc5c(F)cc(N6CC7C(C6)C7(C)C)cc5[s+]c4c3)CC21 (stereo not shown) [Compound 5] | < 0.1 | 6.25 | 
37 | COc1cc2nc3c(N4CCCC4)cc(N4CCCC4)cc3[s+]c2cc1N1CCCC1 [Compound 76] | < 2.5 |  | 
38 | c1cc(N2CCCC2)c2nc3ccc(N4CCCC4)cc3[s+]c2c1 [Compound 38] | 2.5 | 6.3 | 
39 | CC1(C)C2CN(c3ccc4nc5c(Cl)cc(N6CC7C(C6)C7(C)C)cc5[s+]c4c3)CC21 (stereo not shown) [Compound 15] | 2.5 | 12.5 | 
40 | CCc1cc(N2CCCNCC2)cc2[s+]c3cc(N4CCCC4C)cc(CC)c3nc12 (stereo not shown) [Compound 81] | < 2.5 |  | 
41 | CN1CCN(c2ccc3nc4c(C(C)(C)C)cc(N5CCN(C)CC5)cc4[s+]c3c2)CC1 [Compound 85] | 12.5 |  | 
42 | CCc1cc(N2CC3C(C2)C3(C)C)cc2[s+]c3cc(N4CC5C(C4)C5(C)C)cc(CC)c3nc12 (stereo not shown) [Compound 10] | < 0.5 | 6.25 | 

Row | SMILES | EC50 (Hennes-20 cells) [µM] | MIC (E. coli ATCC25922) [µM] | Anti-bacterial Activity (E. coli MIC (uM)) (E. coli ATCC25922; E. coli, Table 5) [µM]
43 | c1cc2nc3ccc(N4CCCCCC4)cc3[s+]c2cc1N1CCCCCC1 [Compound 22] | < 0.5 | 1.6 | 
44 | N#Cc1cc(N2CCCC2)cc2[s+]c3cc(N4CCCC4)cc(N4CCCC4)c3nc12 [Compound 78] | < 2.5 |  | 
45 | CCc1cccc2[s+]c3cc(N4CCCC4)ccc3nc12 [Compound 37] |  | 6.3 | 
46 | CC(C)(C)c1cc(N2CCOCC2)cc2[s+]c3cc(N4CCOCC4)ccc3nc12 [Compound 88] | 12.5 |  | 
47 | CC1(C)C2CN(c3ccc4nc5cc(CN)c(N6CC7C(C6)C7(C)C)cc5[s+]c4c3)CC21 (stereo not shown) [Compound 7] |  | 6.3 | 
48 | CC1(C)C2CN(c3ccc4nc5c(N6CCCC6)cc(N6CC7C(C6)C7(C)C)cc5[s+]c4c3)CC21 (stereo not shown) [Compound 4] | 0.5 | 3.1 | 
49 | CC1(C)C2CN(c3ccc4nc5cc(Cl)c(N6CC7C(C6)C7(C)C)cc5[s+]c4c3)CC21 (stereo not shown) [Compound 9] | 0.5 | 12.5 | 
50 | CCc1cc(N2CCCC2)cc2[s+]c3cc(N4CCCC4)cc(CC)c3nc12 [Compound 39] |  | 3.1 | 
51 | c1cc2nc3ccc(N4CC5CC5C4)cc3[s+]c2cc1N1CC2CC2C1 (stereo not shown) [Compound 3] |  | 1.6 | 
52 | c1ccc2c(c1)Sc1ccccc1N2c1ccc2nc3c(N4CCCC4)cc(N4CCCC4)cc3[s+]c2c1 [Compound 19] |  | 12.5 | 
53 | NCc1cc2nc3ccc(N4CCCC4)cc3[s+]c2cc1N1CCCC1 [Compound 27] |  | 12.5 | 
54 | FC1(F)C2CN(c3ccc4nc5ccc(N6CC7C(C6)C7(F)F)cc5[s+]c4c3)CC21 (stereo not shown) [Compound 2] |  | 1.6 | 
55 | CCc1cc(C(C)C)cc2[s+]c3cc(N(C)C)cc(CC)c3nc12 [Compound 60] | < 2.5 |  | 
56 | CC1(C)C2CN(c3ccc4nc5ccc(N6CCCCCC6)cc5[s+]c4c3)CC21 (stereo not shown) [Compound 30, 3-[6,6-dimethyl-3-azabicyclo[3.1.0]hexan-N-yl]-7-(azepan-1-yl) phenothiazinium iodide] |  | 0.8 | 
57 | CC1(C)CCCN1c1ccc2nc3ccc(N4CCCCCC4)cc3[s+]c2c1 [Compound 28] |  | 12.5 | 
58 | CCc1cc(N2CCCC2)cc2[s+]c3cc(N4CCCC4)cc(C(C)C)c3nc12 [Compound 64] |  |  | 6.3
59 | c1cc2nc3ccc(N4CCC5(CCC5)C4)cc3[s+]c2cc1N1CCC2(CCC2)C1 [Compound 17] |  | 3.1 | 
60 | FC(F)(F)c1cc(N2CCCC2)cc2[s+]c3cc(N4CCCC4)cc(N4CCCC4)c3nc12 [Compound 75] | < 2.5 |  | 
61 | CC1C=CC(C)N1c1ccc2nc3ccc(N4C(C)C=CC4C)cc3[s+]c2c1 (stereo not shown) [Compound 61] |  | 25 | 
62 | FC(F)(F)c1cc(N2CCCC2)cc2[s+]c3cc(N4CCCC4)ccc3nc12 [Compound 71] | < 2.5 |  | 
63 | CC(C)(C)c1cc(N2CCC(C(=N)N)CC2)cc2[s+]c3cc(N4CCCC4)ccc3nc12 [Compound 91] | > 12.5 |  | 
